According to patent publication US12600808B2, “Crosslinkable prepolymers for chemically stable polymer gels” (priority 2020, dated 2026):

Experiments:
Type in all cases: physicochemical
[1] = Retainment of antioxidants in hydrogel samples, leaching with weekly exchange of heavy water
Experimental: The retainment properties of antioxidants were tested by preparing and aging antioxidant-doped samples according to application example 3. The heavy water the hydrogels samples were aged in was exchanged weekly, followed by testing of the heavy water. Detection of decomposition was observed by NMR spectroscopy with the formation of decomposition markers, such as formic acid, in the liquid. This was quantified with the addition of an internal standard.
Retainment of BHT and sodium fenozan was studied according to […].

[2] = Photopolymerization efficiency, gravimetric determination of the cured polymer mass; settings: photopolymerization efficiency test per application example 5 with antioxidant
Experimental: The photopolymerization efficiency was examined by gravimetric determination of the cured polymer mass: Solutions containing prepolymer prepared according to examples 5-7, 10 or 11 (15% w/w) and photoinitiator (0.1% w/w) were prepared in deionized water. 500 mg of the premixed solutions were loaded into a 2 mL polystyrene cuvette and irradiated for 60 s with a laser (X=405 nm, p=10 mW) from the side. The solid hydrogels were removed, wiped to remove residual liquid, and weighed. The ratio of solid, cure material to liquid, uncured material was calculated and used as a measure for the photopolymerization efficiency. The setup used is depicted in FIG. 2: 301 represents the polystyrene cuvette, 302 the liquid prepolymer composition, 303 the solidified hydrogel and 304 the laser beam.
The photopolymerization efficiency of the prepolymers PEG-DMA (prepared according to example 7), linker-containing PEG-dimethacrylates (example 5-7), PEG-DAAm (example 10), linker-containing PEG-diacrylamides (example 11) and 1OR5-Dimethacrylate (example 12) was compared according to application example 5: […]

[3] = Antioxidant testing: accelerated aging of antioxidant-doped hydrogels in D2O, decomposition markers by NMR; settings: antioxidant added to prepolymer formulation (BHT with 1% DMSO)
From the text: The influence of different antioxidants on hydrogel stability was studied by doping prepolymer formulations with specified antioxidants prior to photopolymerization as described in application example 1, followed by accelerated aging experiments in heavy water (D20).
Detection of decomposition was observed by NMR spectroscopy with the formation of decomposition markers, such as formic acid, in the liquid. This was quantified with the addition of an internal standard.

Compound | Retainment of antioxidant in hydrogel (decomposition markers and antioxidant in leached solvent) ([1]; leaching experiments over three weeks) | Reduction of polymerized mass in presence of antioxidant [2] | Decomposition (decomposition marker such as formic acid) of hydrogel with antioxidant [3] | Decomposition markers in leached solvent ([1]; after 3 weeks of leaching)
Cc1cc(C(C)(C)C)c(O)c(C(C)(C)C)c1 [BHT] | lack of decomposition markers and antioxidant in the leached solvent | no reduction of polymerized masses was observed | no decomposition was observed | 
CC(C)(C)c1cc(CCC(=O)[O-])cc(C(C)(C)C)c1O.[Na+] [sodium fenozan] |  | no reduction of polymerized masses was observed | no decomposition was observed | 1.4 mM
